Source: ChEMBL document CHEMBL5244251, “Recent researches for dual Aurora target inhibitors in antitumor field” (Eur J Med Chem, 2020)
Each block holds one compound with its values, some of them ahead of it.

Columns and labels:
Aurora kinase C = target: T1, Aurora kinase C (Homo sapiens, UniProt Q9UQB9); assay: Inhibition of human Aurora C
T1 sequence (Q9UQB9 whole entry): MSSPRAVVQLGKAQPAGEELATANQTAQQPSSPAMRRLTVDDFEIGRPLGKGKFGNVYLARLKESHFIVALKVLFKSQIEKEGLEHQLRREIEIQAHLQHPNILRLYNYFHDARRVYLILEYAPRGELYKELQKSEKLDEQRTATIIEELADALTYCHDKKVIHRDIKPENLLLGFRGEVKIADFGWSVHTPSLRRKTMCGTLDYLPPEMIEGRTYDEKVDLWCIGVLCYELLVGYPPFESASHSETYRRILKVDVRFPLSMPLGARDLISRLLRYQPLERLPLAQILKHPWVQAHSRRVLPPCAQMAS

[1] = Inhibition of Xenopus laevis Aurora kinase B
[2] = Antitumor activity against human Fuji cells xenografted in mouse assessed as reduction in tumor volume; type: functional; design: scale not given: the % may be the effect or the level left
[3] = Antitumor activity against human Fuji cells xenografted in mouse assessed as reduction in tumor weight; type: functional; design: scale not given: the % may be the effect or the level left
A-375 = assay: Antitumor activity against human A-375 cells xenografted in mouse assessed as tumor growth inhibition; type: functional

IC50 (Aurora kinase C): 15 nM
IC50 [1]: 3 nM
SMILES: CCNC(=O)C#Cc1ccc2c(c1)NC(=O)/C2=C(\Nc1ccc(CN(C)C)cc1)c1ccccc1

SMILES: CN(C)S(=O)(=O)c1ccc2c(c1)/C(=C/c1cc3c([nH]1)CCCC3)C(=O)N2
Activity [2]: 16%
Activity [3]: 13%

SMILES: Nc1nc(Nc2ccc(S(N)(=O)=O)cc2)nn1C(=O)c1c(F)cccc1F [JNJ-7706621]
TGI (A-375): 95%
